System: WGA (wheat germ lectin)
Experiment: Bonding of reactive compound with WGA, analysed by elution from the size-excluding first dimension column
Format: binding
Details: 50 mM phosphoric acid buffer pH 6.8/0.8% NaCl, 25° C.
Procedure: FIGS. 8A and 8B show the results of the analysis of the components eluted in the first dimension column in the example shown in FIG. 5. […] The sample used consisted of WGA (1 mg/mL) for the target compound or protein, and p-nitrophenyl-di-N-acetyl-β-chitobioside (0.1 mg/mL) for the reactive compounds. For the first dimension mobile phase, 50 mM phosphoric acid buffer (pH 6.8)/0.8% NaCl solution was used, which was fed at the rate of 0.05 mL/minute. For the first dimension column 10a, a silica-based size-excluding DIOL column (product of Shimadzu Corporation) of 150 mm in length and 2 mm in internal diameter was used, while setting the column oven temperature at 25° C. In the measurements that produced the chromatogram shown in FIG. 8B, 30 μL of WGA or protein was suctioned by the sample injection nozzle 32a, and then 5 μL of p-nitrophenyl-di-N-acetyl-β-chitobioside was suctioned, followed by the injection of the sample from the sample injection nozzle 32a into the sample injection port 8. In FIGS. 8A and 8B, the peaks indicated by the broken lines are the peaks obtained when p-nitrophenyl-di-N-acetyl-β-chitobioside alone was injected into the sample injection port. The peaks of p-nitrophenyl-di-N-acetyl-β-chitobioside appear in different locations in FIGS. 8A and Bbecause the scale on the horizontal axis differs, but the retention time is identical in both graphs.

Q: CC(=O)N[C@H]1[C@H](Oc2ccc([N+](=O)[O-])cc2)O[C@H](CO)[C@@H](O[C@@H]2O[C@H](CO)[C@@H](O)[C@H](O)[C@H]2NC(C)=O)[C@@H]1O [p-nitrophenyl-di-N-acetyl-β-chitobioside] was tested. Which “bonding state with WGA judged from elution time (FIG. 8B)” value (reactive compound (5 μL) injected first, then WGA (30 μL), separately, reaction within the size-excluding column) did it give?
A: shifted to the location of the elution time for WGA

Q: What about the “bonding state with WGA judged from elution time (FIG. 8A)” value (target and reactive compound mixed beforehand and injected as a reaction solution, WGA 1 mg/mL, compound 0.1 mg/mL) of the same compound?
A: has been dissociated from WGA

— patent US20070178581A1, “Screening method and apparatus for identifying a reactive compound bonding with a target compound” (SHIMADZU CORPORATION, priority 2006, published 2007)
